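96-well plates; 48 h exposure; 5 concentrations. Endpoints by linear interpolation between flanking doses. Not reached: highest tested concentration assigned. At the GI50, growth is halved.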 Activity calls are given as the source filed them. Cut-off read from the data, not from the text of the source: active = GI50 up to about 1.1 µM and inactive = higher. Non-standard residues stand in square brackets, D forms with d. Residues, ends and D or L forms follow the SMILES beside them. *: point of attachment. hSer = N[CH](CCO)C(=O)O; Boc = CC(C)(C)OC(=O)*
Assays:
Test in all cases: DTP human tumour cell line panel, 48 h
MDA-MB-435 = tested on: MDA-MB-435
MDA-N = tested on: MDA-N
HOP-62 = tested on: HOP-62
HCT-15 = tested on: HCT-15
BT-549 = tested on: BT-549
SK-OV-3 = tested on: SK-OV-3
MDA-MB-231 = tested on: MDA-MB-231
OVCAR-5 = tested on: OVCAR-5
HT-29 = tested on: HT-29
M14 = tested on: M14
SNB-75 = tested on: SNB-75
HCT-116 = tested on: HCT-116
RXF 393 = tested on: RXF 393
UO-31 = tested on: UO-31
SR = tested on: SR
786-0 = tested on: 786-0
COLO 205 = tested on: COLO 205
UACC-62 = tested on: UACC-62
SW-620 = tested on: SW-620
NCI-H226 = tested on: NCI-H226

| Compound | GI50 (MDA-MB-435) | GI50 (MDA-N) | GI50 (HOP-62) | GI50 (HCT-15) | GI50 (BT-549) | GI50 (SK-OV-3) | GI50 (MDA-MB-231) | GI50 (OVCAR-5) | GI50 (HT-29) | GI50 (M14) | GI50 (SNB-75) | GI50 (HCT-116) | GI50 (RXF 393) | GI50 (UO-31) | GI50 (SR) | GI50 (786-0) | GI50 (COLO 205) | GI50 (UACC-62) | GI50 (SW-620) | GI50 (NCI-H226) |
| --- | --- | --- | --- | --- | --- | --- | --- | --- | --- | --- | --- | --- | --- | --- | --- | --- | --- | --- | --- | --- |
| CC(C)(C)c1ccc(O)c(CN(Cc2cc(C(C)(C)C)ccc2O)C2CCCCC2)c1 | 14.5 µM (inactive) | 14.7 µM (inactive) | 18.5 µM (inactive) | 20.7 µM | 19.8 µM (inactive) | 24.4 µM (inactive) | 18 µM (inactive) | 17.7 µM (inactive) | 16.1 µM (inactive) | 13.6 µM (inactive) | 23.3 µM (inactive) | 16.2 µM (inactive) | 17.4 µM (inactive) | 23.2 µM (inactive) | 18.5 µM (inactive) | 16 µM (inactive) | 2.2 µM (inactive) | 15.7 µM (inactive) | 18.3 µM (inactive) | – |
| O=c1s[s+]([O-])c2ccccc12 (centres undefined) | > 100 µM (inactive) | > 100 µM (inactive) | > 100 µM (inactive) | 72.9 µM | > 100 µM (inactive) | > 100 µM (inactive) | > 100 µM (inactive) | > 100 µM (inactive) | > 100 µM (inactive) | > 100 µM (inactive) | > 100 µM (inactive) | > 100 µM (inactive) | – | > 100 µM (inactive) | > 100 µM (inactive) | > 100 µM (inactive) | > 100 µM (inactive) | > 100 µM (inactive) | > 100 µM (inactive) | > 100 µM (inactive) |
| O=[N+]([O-])c1ccc(Cl)cc1N/N=C/c1cccc2cccnc12 | > 100 µM (inactive) | > 100 µM (inactive) | > 100 µM (inactive) | > 100 µM | > 100 µM (inactive) | > 100 µM (inactive) | > 100 µM (inactive) | – | > 100 µM (inactive) | > 100 µM (inactive) | 59.2 µM (inactive) | 54 µM (inactive) | > 100 µM (inactive) | 33.1 µM (inactive) | 15.3 µM (inactive) | > 100 µM (inactive) | > 100 µM (inactive) | > 100 µM (inactive) | 96.6 µM (inactive) | – |
| CCC1OC(=O)CC(O)C(C)C(OC2OC(C)C(O)C(N(C)C)C2O)C(CC=O)CC(C)C(=O)/C=C/C2(C)OC2C1C (centres undefined) | 27.7 µM (inactive) | 24.4 µM (inactive) | 33.4 µM (inactive) | 32.1 µM | 37.3 µM (inactive) | 58.7 µM (inactive) | 24 µM (inactive) | 47.3 µM (inactive) | 20.2 µM (inactive) | 18.6 µM (inactive) | 23.5 µM (inactive) | 17.9 µM (inactive) | – | – | 13.5 µM (inactive) | 24.1 µM (inactive) | 19.6 µM (inactive) | 19.8 µM (inactive) | 20 µM (inactive) | > 100 µM (inactive) |
| O=C(NCc1ccc(Cl)c(Cl)c1)c1nc2ccccc2nc1NCc1ccc(Cl)c(Cl)c1 | > 100 µM (inactive) | > 100 µM (inactive) | 83.6 µM (inactive) | > 100 µM | > 100 µM (inactive) | – | > 100 µM (inactive) | > 100 µM (inactive) | > 100 µM (inactive) | > 100 µM (inactive) | > 100 µM (inactive) | > 100 µM (inactive) | > 100 µM (inactive) | > 100 µM (inactive) | > 100 µM (inactive) | > 100 µM (inactive) | > 100 µM (inactive) | > 100 µM (inactive) | > 100 µM (inactive) | > 100 µM (inactive) |
| CC(NC(=O)C(OC(=O)C(C)NC(=O)OC(C)(C)C)C(C)C)C(=O)OC(C(=O)O)C(C)C (centres undefined) | > 100 µM (inactive) | > 100 µM (inactive) | > 100 µM (inactive) | > 100 µM | > 100 µM (inactive) | > 100 µM (inactive) | > 100 µM (inactive) | > 100 µM (inactive) | > 100 µM (inactive) | > 100 µM (inactive) | > 100 µM (inactive) | – | > 100 µM (inactive) | > 100 µM (inactive) | > 100 µM (inactive) | > 100 µM (inactive) | > 100 µM (inactive) | > 100 µM (inactive) | > 100 µM (inactive) | > 100 µM (inactive) |
| CNC(=S)NNc1ncnc2c1ncn2-c1ccc(C)cc1 | > 100 µM (inactive) | > 100 µM (inactive) | > 100 µM (inactive) | > 100 µM | > 100 µM (inactive) | > 100 µM (inactive) | 43.9 µM (inactive) | > 100 µM (inactive) | > 100 µM (inactive) | > 100 µM (inactive) | – | > 100 µM (inactive) | > 100 µM (inactive) | > 100 µM (inactive) | > 100 µM (inactive) | > 100 µM (inactive) | > 100 µM (inactive) | > 100 µM (inactive) | > 100 µM (inactive) | > 100 µM (inactive) |
| OCC1=C[C@@](COCc2ccccc2)(OCc2ccccc2)[C@@H](OCc2ccccc2)[C@@H]1OCc1ccccc1 | 6.64 µM (inactive) | 17.2 µM (inactive) | 24.2 µM (inactive) | 17.1 µM | 24.7 µM (inactive) | – | 9.08 µM (inactive) | 26.3 µM (inactive) | 12.7 µM (inactive) | 23.9 µM (inactive) | – | 12.2 µM (inactive) | 3.64 µM (inactive) | 17 µM (inactive) | 12.2 µM (inactive) | 20.7 µM (inactive) | 11.6 µM (inactive) | 17.3 µM (inactive) | 18.5 µM (inactive) | 15.5 µM (inactive) |
| C/C(=C\Cc1ccc(F)cc1)CCCCCC/C(C)=C/Cc1ccc(F)cc1 | 16.5 µM (inactive) | 18.5 µM (inactive) | 10.5 µM (inactive) | 16.8 µM | 28.6 µM (inactive) | 37.8 µM (inactive) | 17.9 µM (inactive) | 16.2 µM (inactive) | 16.1 µM (inactive) | 17.4 µM (inactive) | 18.7 µM (inactive) | 15.8 µM (inactive) | 20.7 µM (inactive) | 10.7 µM (inactive) | 18.3 µM (inactive) | 7.13 µM (inactive) | 16.4 µM (inactive) | 16.6 µM (inactive) | 17.9 µM (inactive) | – |
| Cc1ccc2nc(NC(=O)/C(Cc3nc4ccc(Cl)cc4nc3O)=N\NC(C)(C)C)sc2c1 | > 100 µM (inactive) | > 100 µM (inactive) | – | 90.6 µM | > 100 µM (inactive) | > 100 µM (inactive) | > 100 µM (inactive) | > 100 µM (inactive) | > 100 µM (inactive) | > 100 µM (inactive) | 15.5 µM (inactive) | > 100 µM (inactive) | > 100 µM (inactive) | 59.6 µM (inactive) | > 100 µM (inactive) | > 100 µM (inactive) | > 100 µM (inactive) | > 100 µM (inactive) | > 100 µM (inactive) | 9.59 µM (inactive) |
| COc1ccc2c(c1)CCC(CN1CCN(CCOC(c3ccc(F)cc3)c3ccc(F)cc3)CC1)C2O (centres undefined) | 16 µM (inactive) | 15.6 µM (inactive) | 16.1 µM (inactive) | 10.4 µM | 14.4 µM (inactive) | 15.5 µM (inactive) | 13.6 µM (inactive) | 15.2 µM (inactive) | 5.09 µM (inactive) | 12.2 µM (inactive) | 16.8 µM (inactive) | 11.1 µM (inactive) | 12.3 µM (inactive) | – | 6.28 µM (inactive) | 11.7 µM (inactive) | 4.59 µM (inactive) | 11.5 µM (inactive) | 21.1 µM (inactive) | 16 µM (inactive) |
| CCOC(=O)c1[nH]c2ccccc2c1C(=O)C[C@H](NC(=O)C(F)(F)F)C(=O)OC | > 100 µM (inactive) | > 100 µM (inactive) | > 100 µM (inactive) | > 100 µM | > 100 µM (inactive) | – | > 100 µM (inactive) | > 100 µM (inactive) | > 100 µM (inactive) | > 100 µM (inactive) | > 100 µM (inactive) | > 100 µM (inactive) | – | 75.3 µM (inactive) | > 100 µM (inactive) | > 100 µM (inactive) | > 100 µM (inactive) | – | > 100 µM (inactive) | > 100 µM (inactive) |
| COC(=O)[C@]12C3=C(O)C(=O)C[C@H]1OC[C@H]2C=CC3 | > 100 µM (inactive) | > 100 µM (inactive) | > 100 µM (inactive) | > 100 µM | > 100 µM (inactive) | > 100 µM (inactive) | > 100 µM (inactive) | > 100 µM (inactive) | – | > 100 µM (inactive) | > 100 µM (inactive) | > 10 µM (inactive) | > 100 µM (inactive) | > 100 µM (inactive) | > 100 µM (inactive) | > 100 µM (inactive) | > 100 µM (inactive) | > 100 µM (inactive) | 29.2 µM (inactive) | – |
| O=[N+]([O-])c1cccc(/N=N/c2c(O)c(S(=O)(=O)O)cc3cc(S(=O)(=O)O)ccc23)c1 | > 100 µM (inactive) | > 100 µM (inactive) | > 100 µM (inactive) | > 100 µM | > 100 µM (inactive) | > 100 µM (inactive) | > 100 µM (inactive) | > 100 µM (inactive) | – | > 100 µM (inactive) | > 100 µM (inactive) | > 100 µM (inactive) | > 100 µM (inactive) | > 100 µM (inactive) | > 100 µM (inactive) | > 100 µM (inactive) | > 100 µM (inactive) | > 100 µM (inactive) | > 100 µM (inactive) | > 100 µM (inactive) |
| COCCC(NC(=O)C(CC(C)C)NC(=O)OC(C)(C)C)C(N)=O (stereo not drawn) (Boc-Leu-[hSer](Me)-NH2; configuration not given here) | > 100 µM (inactive) | > 100 µM (inactive) | > 100 µM (inactive) | > 100 µM | > 100 µM (inactive) | > 100 µM (inactive) | > 100 µM (inactive) | – | > 100 µM (inactive) | > 100 µM (inactive) | > 100 µM (inactive) | > 100 µM (inactive) | > 100 µM (inactive) | > 100 µM (inactive) | > 100 µM (inactive) | > 100 µM (inactive) | > 100 µM (inactive) | > 100 µM (inactive) | > 100 µM (inactive) | > 100 µM (inactive) |

From ChEMBL document CHEMBL1201862, “PubChem BioAssay data set” (2004)
